Results taken from the kinase profiling compilation of Christmann-Franck et al. (2016).

Experiments:
Assay in all cases: KINOMEscan competition binding
Details in all cases: compound 10.0 µM
CASK (human) = CASK (human) (UniProt O14936)
[1] = system: EGFR (human), P00533 [A750P; 747-749 del]
RPS6KA6 KD2 (human) = RPS6KA6 KD2 (human) (UniProt Q9UK32)
TLK1 (human) = TLK1 (human) (UniProt Q9UKI8)
MAP2K3 (human) = MAP2K3 (human) (UniProt P46734)
CSNK1G3 (human) = CSNK1G3 (human) (UniProt Q9Y6M4)
CSK (human) = CSK (human) (UniProt P41240)
PRKD1 (human) = PRKD1 (human) (UniProt Q15139)
MAPK10 (human) = MAPK10 (human) (UniProt P53779)
RPS6KB1 (human) = RPS6KB1 (human) (UniProt P23443)
RPS6KB1 (human), sequence (P23443 whole entry, looked up): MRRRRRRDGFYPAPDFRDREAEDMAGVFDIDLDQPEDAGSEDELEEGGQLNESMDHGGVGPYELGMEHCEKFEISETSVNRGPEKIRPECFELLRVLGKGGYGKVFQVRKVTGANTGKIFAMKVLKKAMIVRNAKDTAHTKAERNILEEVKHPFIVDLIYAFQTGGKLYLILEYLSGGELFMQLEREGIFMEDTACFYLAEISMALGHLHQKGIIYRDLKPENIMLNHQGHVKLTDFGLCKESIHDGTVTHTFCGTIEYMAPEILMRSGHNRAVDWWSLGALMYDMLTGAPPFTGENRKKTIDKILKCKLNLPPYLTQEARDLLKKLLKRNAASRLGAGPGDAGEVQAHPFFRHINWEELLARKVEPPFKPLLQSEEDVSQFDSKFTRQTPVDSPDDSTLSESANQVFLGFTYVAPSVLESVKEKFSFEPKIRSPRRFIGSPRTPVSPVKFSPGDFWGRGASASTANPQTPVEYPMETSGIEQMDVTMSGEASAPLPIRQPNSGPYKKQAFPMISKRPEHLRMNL

CDK17 (human) = CDK17 (human) (UniProt Q00537)
WEE1 (human) = WEE1 (human) (UniProt P30291)
WEE1 (human), sequence (P30291 whole entry, looked up): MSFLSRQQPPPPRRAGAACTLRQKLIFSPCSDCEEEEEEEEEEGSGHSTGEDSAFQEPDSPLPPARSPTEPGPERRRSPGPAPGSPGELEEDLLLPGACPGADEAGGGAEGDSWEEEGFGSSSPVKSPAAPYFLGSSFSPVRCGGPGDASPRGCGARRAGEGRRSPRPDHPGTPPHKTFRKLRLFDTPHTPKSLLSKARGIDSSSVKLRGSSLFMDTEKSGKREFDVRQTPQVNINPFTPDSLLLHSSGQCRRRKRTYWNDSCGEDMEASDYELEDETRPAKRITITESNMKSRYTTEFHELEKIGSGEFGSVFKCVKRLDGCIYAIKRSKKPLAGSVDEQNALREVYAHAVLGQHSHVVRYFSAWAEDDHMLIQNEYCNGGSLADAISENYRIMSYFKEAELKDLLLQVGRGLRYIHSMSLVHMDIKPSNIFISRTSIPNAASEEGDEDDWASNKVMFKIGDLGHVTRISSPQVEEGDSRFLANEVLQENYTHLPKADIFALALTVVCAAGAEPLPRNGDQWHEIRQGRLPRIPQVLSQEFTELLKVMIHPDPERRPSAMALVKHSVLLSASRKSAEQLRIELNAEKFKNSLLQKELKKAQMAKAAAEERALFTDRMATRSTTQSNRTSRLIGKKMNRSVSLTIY

PRKCH (human) = PRKCH (human) (UniProt P24723)
[2] = system: PIK3CA (human), P42336 [H1047L]
ACVR1 (human) = ACVR1 (human) (UniProt Q04771)
PI4KB (human) = PI4KB (human) (UniProt Q9UBF8)
EPHB4 (human) = EPHB4 (human) (UniProt P54760)
MYLK4 (human) = MYLK4 (human) (UniProt Q86YV6)
EIF2AK1 (human) = EIF2AK1 (human) (UniProt Q9BQI3)
EIF2AK1 (human), sequence (Q9BQI3 whole entry, looked up): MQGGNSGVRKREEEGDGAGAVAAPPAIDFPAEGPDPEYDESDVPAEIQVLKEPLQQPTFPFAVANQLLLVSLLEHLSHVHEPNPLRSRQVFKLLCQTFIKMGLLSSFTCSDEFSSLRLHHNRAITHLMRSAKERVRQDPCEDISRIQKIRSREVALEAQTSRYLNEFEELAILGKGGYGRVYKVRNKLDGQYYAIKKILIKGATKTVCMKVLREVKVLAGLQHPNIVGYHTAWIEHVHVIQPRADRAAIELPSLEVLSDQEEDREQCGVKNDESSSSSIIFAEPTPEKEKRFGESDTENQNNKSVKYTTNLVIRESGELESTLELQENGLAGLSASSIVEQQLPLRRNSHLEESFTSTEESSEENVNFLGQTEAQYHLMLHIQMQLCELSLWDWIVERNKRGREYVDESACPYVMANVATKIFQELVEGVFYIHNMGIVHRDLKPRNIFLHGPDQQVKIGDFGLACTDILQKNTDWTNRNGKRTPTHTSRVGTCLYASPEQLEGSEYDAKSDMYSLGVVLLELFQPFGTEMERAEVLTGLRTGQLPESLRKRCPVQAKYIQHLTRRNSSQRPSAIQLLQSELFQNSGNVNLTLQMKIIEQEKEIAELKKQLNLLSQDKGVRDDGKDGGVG

CIT (human) = CIT (human) (UniProt O14578)
STK32A (human) = STK32A (human) (UniProt Q8WU08)
TXK (human) = TXK (human) (UniProt P42681)
RIPK4 (human) = RIPK4 (human) (UniProt P57078)
EPHA1 (human) = EPHA1 (human) (UniProt P21709)
SGK110 (human) = SGK110 (human) (UniProt P0C264)
RPS6KA2 KD2 (human) = RPS6KA2 KD2 (human) (UniProt Q15349)
RPS6KA2 KD2 (human), sequence (Q15349 whole entry, looked up): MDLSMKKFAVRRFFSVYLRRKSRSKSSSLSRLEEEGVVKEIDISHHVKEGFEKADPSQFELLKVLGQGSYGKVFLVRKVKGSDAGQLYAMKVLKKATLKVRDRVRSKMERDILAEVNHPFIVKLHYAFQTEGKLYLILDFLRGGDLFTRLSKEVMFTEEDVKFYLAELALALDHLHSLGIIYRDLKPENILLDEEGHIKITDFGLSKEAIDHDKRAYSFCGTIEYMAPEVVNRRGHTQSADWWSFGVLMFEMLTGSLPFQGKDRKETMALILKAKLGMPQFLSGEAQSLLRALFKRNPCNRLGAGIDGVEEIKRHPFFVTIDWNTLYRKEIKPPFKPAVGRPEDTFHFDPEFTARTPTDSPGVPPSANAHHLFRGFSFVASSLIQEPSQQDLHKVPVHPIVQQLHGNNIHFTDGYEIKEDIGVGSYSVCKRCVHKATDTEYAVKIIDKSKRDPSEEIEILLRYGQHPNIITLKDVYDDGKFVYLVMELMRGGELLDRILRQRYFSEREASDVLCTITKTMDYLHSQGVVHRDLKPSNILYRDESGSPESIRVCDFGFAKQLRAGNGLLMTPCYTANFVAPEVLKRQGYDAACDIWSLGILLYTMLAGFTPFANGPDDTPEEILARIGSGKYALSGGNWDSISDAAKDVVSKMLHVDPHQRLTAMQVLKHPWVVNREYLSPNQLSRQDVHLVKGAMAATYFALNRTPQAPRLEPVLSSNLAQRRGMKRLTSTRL

CDK11B (human) = CDK11B (human) (UniProt P21127)
PIP5K1C (human) = PIP5K1C (human) (UniProt O60331)
PIP5K1C (human), sequence (O60331 whole entry, looked up): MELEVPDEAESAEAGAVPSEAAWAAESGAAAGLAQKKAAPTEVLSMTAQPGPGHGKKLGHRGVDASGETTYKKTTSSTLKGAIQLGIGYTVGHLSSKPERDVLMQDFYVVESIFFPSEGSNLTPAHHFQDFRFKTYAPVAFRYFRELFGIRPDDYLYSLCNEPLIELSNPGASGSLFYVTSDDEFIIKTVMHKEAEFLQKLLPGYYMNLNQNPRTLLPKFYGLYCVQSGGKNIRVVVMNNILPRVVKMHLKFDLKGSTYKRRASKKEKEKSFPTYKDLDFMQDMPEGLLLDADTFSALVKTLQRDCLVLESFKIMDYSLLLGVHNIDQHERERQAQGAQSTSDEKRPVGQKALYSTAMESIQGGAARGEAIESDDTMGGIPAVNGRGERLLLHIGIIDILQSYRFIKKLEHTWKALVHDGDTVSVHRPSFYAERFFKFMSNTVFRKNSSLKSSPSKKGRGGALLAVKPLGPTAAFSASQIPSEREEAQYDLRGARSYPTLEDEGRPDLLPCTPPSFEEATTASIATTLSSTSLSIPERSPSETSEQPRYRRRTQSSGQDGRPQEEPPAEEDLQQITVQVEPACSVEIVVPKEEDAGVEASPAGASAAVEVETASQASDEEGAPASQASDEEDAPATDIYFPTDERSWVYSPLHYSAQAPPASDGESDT

PRKACA (human) = PRKACA (human) (UniProt P17612)
EPHA3 (human) = EPHA3 (human) (UniProt P29320)
MAP3K10 (human) = MAP3K10 (human) (UniProt Q02779)
MAP3K10 (human), sequence (Q02779 whole entry, looked up): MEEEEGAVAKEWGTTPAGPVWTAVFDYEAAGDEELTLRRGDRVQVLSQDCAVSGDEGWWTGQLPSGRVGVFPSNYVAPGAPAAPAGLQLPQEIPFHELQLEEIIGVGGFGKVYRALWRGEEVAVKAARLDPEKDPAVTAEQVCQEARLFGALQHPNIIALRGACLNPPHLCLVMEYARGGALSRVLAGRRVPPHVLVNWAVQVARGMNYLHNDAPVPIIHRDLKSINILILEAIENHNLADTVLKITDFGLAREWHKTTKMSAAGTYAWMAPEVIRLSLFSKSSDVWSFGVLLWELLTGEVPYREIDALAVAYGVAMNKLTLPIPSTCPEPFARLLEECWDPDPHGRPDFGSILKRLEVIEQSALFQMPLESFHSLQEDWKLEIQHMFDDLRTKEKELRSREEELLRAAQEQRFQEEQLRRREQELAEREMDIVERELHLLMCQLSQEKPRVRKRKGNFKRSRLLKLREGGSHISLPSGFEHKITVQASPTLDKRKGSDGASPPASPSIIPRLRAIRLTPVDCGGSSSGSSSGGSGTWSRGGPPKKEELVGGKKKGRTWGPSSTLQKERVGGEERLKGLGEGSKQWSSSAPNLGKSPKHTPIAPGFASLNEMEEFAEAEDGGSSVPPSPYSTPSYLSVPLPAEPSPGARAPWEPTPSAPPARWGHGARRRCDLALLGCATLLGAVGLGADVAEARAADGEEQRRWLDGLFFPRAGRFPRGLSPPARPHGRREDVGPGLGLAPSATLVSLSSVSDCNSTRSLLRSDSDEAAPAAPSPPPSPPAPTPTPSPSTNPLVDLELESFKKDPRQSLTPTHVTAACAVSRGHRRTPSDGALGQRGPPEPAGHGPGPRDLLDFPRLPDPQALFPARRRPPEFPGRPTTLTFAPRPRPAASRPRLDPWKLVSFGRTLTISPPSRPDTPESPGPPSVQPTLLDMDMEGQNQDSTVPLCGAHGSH

ROS1 (human) = ROS1 (human) (UniProt P08922)
MLTK (human) = MLTK (human) (UniProt Q9NYL2)
OXSR1 (human) = OXSR1 (human) (UniProt O95747)
RPS6KA5 KD2 (human) = RPS6KA5 KD2 (human) (UniProt O75582)
PDPK1 (human) = PDPK1 (human) (UniProt O15530)
PDGFRA (human) = PDGFRA (human) (UniProt P16234)
IRAK1 (human) = IRAK1 (human) (UniProt P51617)
[3] = target: JAK2 JH1 catalytic (human) (UniProt O60674)

TLK1 (human), sequence (Q9UKI8 whole entry, looked up): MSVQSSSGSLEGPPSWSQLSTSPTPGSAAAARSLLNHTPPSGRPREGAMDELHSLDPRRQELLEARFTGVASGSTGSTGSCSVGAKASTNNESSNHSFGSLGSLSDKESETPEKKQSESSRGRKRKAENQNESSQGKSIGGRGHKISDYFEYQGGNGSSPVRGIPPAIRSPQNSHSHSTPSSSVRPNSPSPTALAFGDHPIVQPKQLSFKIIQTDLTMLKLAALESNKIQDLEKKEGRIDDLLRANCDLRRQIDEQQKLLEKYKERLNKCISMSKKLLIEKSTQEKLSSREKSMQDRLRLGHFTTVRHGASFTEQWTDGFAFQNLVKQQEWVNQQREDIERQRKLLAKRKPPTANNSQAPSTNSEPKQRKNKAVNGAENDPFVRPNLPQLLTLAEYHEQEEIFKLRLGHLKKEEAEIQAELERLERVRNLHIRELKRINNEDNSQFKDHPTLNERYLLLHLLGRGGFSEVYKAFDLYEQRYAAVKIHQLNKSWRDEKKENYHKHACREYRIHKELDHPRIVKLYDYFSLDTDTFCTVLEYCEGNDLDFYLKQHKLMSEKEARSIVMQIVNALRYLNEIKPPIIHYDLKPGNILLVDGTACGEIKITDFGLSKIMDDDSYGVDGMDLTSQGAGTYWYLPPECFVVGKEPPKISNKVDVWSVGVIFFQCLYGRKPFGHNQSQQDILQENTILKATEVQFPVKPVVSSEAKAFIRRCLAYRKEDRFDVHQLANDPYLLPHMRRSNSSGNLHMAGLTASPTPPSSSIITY

| SMILES | kinase still bound, per cent of control (CASK (human)) | kinase still bound, per cent of control (RPS6KA6 KD2 (human)) | kinase still bound, per cent of control (TLK1 (human)) | kinase still bound, per cent of control (MAP2K3 (human)) | kinase still bound, per cent of control (CSK (human)) | kinase still bound, per cent of control (PRKD1 (human)) | kinase still bound, per cent of control (MAPK10 (human)) | kinase still bound, per cent of control (RPS6KB1 (human)) | kinase still bound, per cent of control (CDK17 (human)) | kinase still bound, per cent of control (WEE1 (human)) | kinase still bound, per cent of control [2] | kinase still bound, per cent of control (ACVR1 (human)) | kinase still bound, per cent of control (EPHB4 (human)) | kinase still bound, per cent of control (MYLK4 (human)) | kinase still bound, per cent of control (EIF2AK1 (human)) | kinase still bound, per cent of control (CIT (human)) | kinase still bound, per cent of control (STK32A (human)) | kinase still bound, per cent of control (RIPK4 (human)) | kinase still bound, per cent of control (EPHA1 (human)) | kinase still bound, per cent of control (RPS6KA2 KD2 (human)) | also measured |
| --- | --- | --- | --- | --- | --- | --- | --- | --- | --- | --- | --- | --- | --- | --- | --- | --- | --- | --- | --- | --- | --- |
| COc1cc2ncnc(Nc3cccc(Cl)c3)c2cc1OC | 67% | 38% | 87% | 57% | 62% | 89% | 9.8% | 63% | 79% | 93% | 56% | 74% | 38% | 78% | 65% | 7.4% | 63% | 43% | 43% | 90% | kinase still bound, per cent of control [1]: 1.4%; kinase still bound, per cent of control (CSNK1G3 (human)): 100%; kinase still bound, per cent of control (PRKCH (human)): 100%; kinase still bound, per cent of control (PI4KB (human)): 44%; kinase still bound, per cent of control (TXK (human)): 63%; kinase still bound, per cent of control (SGK110 (human)): 65%; kinase still bound, per cent of control (CDK11B (human)): 86%; kinase still bound, per cent of control (PIP5K1C (human)): 14%; kinase still bound, per cent of control (PRKACA (human)): 94%; kinase still bound, per cent of control (EPHA3 (human)): 28%; kinase still bound, per cent of control (MAP3K10 (human)): 100%; kinase still bound, per cent of control (ROS1 (human)): 61%; kinase still bound, per cent of control (MLTK (human)): 94%; kinase still bound, per cent of control (OXSR1 (human)): 71%; kinase still bound, per cent of control (RPS6KA5 KD2 (human)): 67%; kinase still bound, per cent of control (PDPK1 (human)): 80%; kinase still bound, per cent of control (PDGFRA (human)): 29%; kinase still bound, per cent of control (IRAK1 (human)): 5.6%; kinase still bound, per cent of control [3]: 46% |
| CC(=O)c1c(C)c2cnc(Nc3ccc(N4CCNCC4)cn3)nc2n(C2CCCC2)c1=O | 60% | 38% | 42% | 19% | 90% | 0.85% | 0.35% | 36% | 2.7% | 36% | 25% | 80% | 100% | 35% | 32% | 3.2% | 87% | 79% | 100% | 26% | kinase still bound, per cent of control (CDK11B (human)): 93%; kinase still bound, per cent of control (PIP5K1C (human)): 35%; kinase still bound, per cent of control (PRKACA (human)): 100%; kinase still bound, per cent of control (EPHA3 (human)): 66%; kinase still bound, per cent of control (MAP3K10 (human)): 93%; kinase still bound, per cent of control (OXSR1 (human)): 81%; kinase still bound, per cent of control (RPS6KA5 KD2 (human)): 15%; kinase still bound, per cent of control (IRAK1 (human)): 0.85%; kinase still bound, per cent of control [3]: 0.65% |
